From US20180147161A1, “MULTIDRUG BRITTLE MATRIX COMPOSITIONS” (BOARD OF REGENTS, THE UNIVERSITY OF TEXAS SYSTEM, priority 2015, published 2018)
Where two headings read alike, the source gives them in different places.

Experiments:
[1] = Particle size distribution by laser diffraction; type: physicochemical; conditions: for Particle size D10 / Particle size D50 / Particle size D90: laser diffraction
Experimental: Measurement of particle size distributions of budesonide, tiotropium bromide and formoterol fumarate before and after jet milling were measured by laser diffraction (HELOS, Sympatec GmbH, Clausthal-Zellerfelg, Germany). A small amount of formoterol fumarate and Tiotropium bromide were separately dispersed in 10 mL 0.01% tween 80 mineral oil and a small amount of budesonide was dispersed in 10 mL 0.01% tween 80 in deionized water. The samples were sonicated for 5 minutes and diluted with enough solvent to produce light obscuration in the range of 15-20%. The sizes reported are average values of at least 3 measurements. The results are presented as D(x) and span, where X is the cumulative percentile of particles under the referred size (e.g. D(50) corresponds to the median diameter of the particles). Span is a measurement of particle size distribution calculated as [(D(90)−D(10)]/D(50).

[2] = BET specific surface area of triple therapy materials; type: physicochemical; conditions: for SSA: after jet milling
Experimental: Powder porosity was determined through the measurement of the specific surface area (SSA) using a Monosorb MS-22 rapid surface area analyzer (Quantachrome Instruments, Boynton Beach, Fla.). The instrument uses a modified BET equation for SSA determination. Samples were degassed in a Thermoflow™ Degasser for at least 2 hours at 25° C. using 30% nitrogen in helium as the […].

[3] = Particle size distribution by laser diffraction; type: physicochemical; conditions: [(D(90)−D(10)]/D(50))
[4] = cited from earlier work

SMILES: COc1ccc(C[C@@H](C)NC[C@H](O)c2ccc(O)c(NC=O)c2)cc1.COc1ccc(C[C@@H](C)NC[C@H](O)c2ccc(O)c(NC=O)c2)cc1.O=C(O)/C=C/C(=O)O [Formoterol furmarate, formoterol fumarate]
- Span ([1]; [(D(90)−D(10)]/D(50))): 7.75
- D50 ([1]; after jet milling): 4.51±0.02 μm
- Span ([1]; after jet milling): 1.96
- Particle size D10 [1]: 1.16 ± 0.05 μm
- Particle size D50 [1]: 6.27 ± 0.97 μm
- Particle size D90 [1]: 49.78 ± 7.84 μm
- Particle size D50 ([1]; listed as Formoterol): 6.27±0.97 μm
- SSA ± SD [2]: 2.97 ± 0.05 m^2/g
- SSA [2]: 5.08±0.26 m^2/g
- SSA ± SD ([2]; listed as formoterol): 2.97±0.05 m^2/g
- Span [3]: 7.75

SMILES: C[N+]1(C)[C@@H]2C[C@@H](OC(=O)C(O)(c3cccs3)c3cccs3)C[C@H]1[C@@H]1O[C@@H]12 [Jet milled tiotropium bromide, tiotropium bromide]
- Span ([1]; [(D(90)−D(10)]/D(50))): 2.0
- Particle size D10 [1]: 1.09 ± 0.79 μm
- Particle size D50 [1]: 4.65 ± 0.04 μm
- Particle size D90 [1]: 10.39 ± 0.04 μm
- SSA ± SD [2]: 2.86 ± 0.11 m^2/g

SMILES: O.OC[C@H]1O[C@@H](O[C@H]2[C@H](O)[C@@H](O)C(O)O[C@@H]2CO)[C@H](O)[C@@H](O)[C@H]1O (some centres unmarked) [Lactose monohydrate, lactose monohydrate]
- Span ([1]; [(D(90)−D(10)]/D(50))): 2.43
- Particle size D10 [1]: 4.13 ± 0.11 μm
- Particle size D90 [1]: 100.9 ± 0.27 μm
- Particle size D50 ([1]; listed as lactose, monohydrate): 39.78±1.32 μm
- Particle size D50 ([1]; monohydrate): 39.78 ± 1.32 μm
- SSA ± SD [2]: 0.34 ± 0.03 m^2/g

SMILES: OC[C@@H](O)[C@@H](O)[C@H](O)[C@H](O)CO [Mannitol, D-(+)-Mannitol]
- Span ([1]; [(D(90)−D(10)]/D(50))): 1.8
- Particle size D10 [1]: 6.88 ± 0.07 μm
- Particle size D50 [1]: 52.70 ± 0.59 μm
- Particle size D90 [1]: 101.91 ± 0.41 μm
- Particle size D50 ([1]; listed as mannitol): 52.70±0.59 μm
- SSA ± SD [2]: 0.22 ± 0.001 m^2/g
- Span [3]: 1.80

SMILES: C[N+]1(C)[C@@H]2C[C@@H](OC(=O)C(O)(c3cccs3)c3cccs3)C[C@H]1[C@@H]1O[C@@H]12 [Tiotropium bromide, tiotropium bromide]
- Span ([1]; [(D(90)−D(10)]/D(50))): 2.14
- D50 ([1]; after jet milling): 4.65±0.04 μm
- Span ([1]; after jet milling): 2.0
- Particle size D10 [1]: 1.10 ± 0.01 μm
- Particle size D50 [1]: 5.14 ± 0.03 μm
- Particle size D90 [1]: 12.11 ± 0.07 μm
- Particle size D50 ([1]; listed as tiotropium): 5.14±0.03 μm
- SSA ± SD [2]: 2.08 ± 0.13 m^2/g
- SSA [2]: 2.86±0.11 m^2/g
- SSA ± SD ([2]; listed as tiotropium): 2.08±0.13 m^2/g
- Span [3]: 2.14

SMILES: COc1ccc(C[C@@H](C)NC[C@H](O)c2ccc(O)c(NC=O)c2)cc1.COc1ccc(C[C@@H](C)NC[C@H](O)c2ccc(O)c(NC=O)c2)cc1.O=C(O)/C=C/C(=O)O [jet milled formoterol fumarate, formoterol fumarate]
- Span ([1]; [(D(90)−D(10)]/D(50))): 1.96
- Particle size D10 [1]: 1.45 ± 1.01 μm
- Particle size D50 [1]: 4.51 ± 0.02 μm
- Particle size D90 [1]: 10.29 ± 0.07 μm
- SSA ± SD [2]: 5.08 ± 0.26 m^2/g

SMILES: C[C@@H]1C[C@H]2[C@@H]3CCC4=CC(=O)C=C[C@]4(C)[C@@]3(Cl)[C@@H](O)C[C@]2(C)[C@@]1(OC(=O)c1ccco1)C(=O)CCl [mometasone furoate]
- Solubility in water [4]: practically insoluble

SMILES: OCc1cc(C(O)CNCCCCCCOCCCCc2ccccc2)ccc1O (centres unmarked) [salmeterol xinafoate]
- Solubility in water [4]: sparingly soluble
